US20240150330A1, “CHROMANS AND BENZOFURANS AS 5-HT1A AND TAAR1 AGONISTS” (Sunovion Pharmaceuticals Inc., priority 2021, published 2024)

Experiments:
human 5-HT1A receptor = biological target: T1, human 5-HT1A receptor (Homo sapiens, UniProt P08908); assay: 5-HT1A Radioligand Binding Assay; conditions: 1 μM test compound; competition with 0.9 nM [3H]-8-OH-DPAT; membranes of 5-HT1A expressing CHO-K1 cells
T1 construct: expressed in transfected cells; host or cells: CHO-K1
T1 sequence (P08908 1-422): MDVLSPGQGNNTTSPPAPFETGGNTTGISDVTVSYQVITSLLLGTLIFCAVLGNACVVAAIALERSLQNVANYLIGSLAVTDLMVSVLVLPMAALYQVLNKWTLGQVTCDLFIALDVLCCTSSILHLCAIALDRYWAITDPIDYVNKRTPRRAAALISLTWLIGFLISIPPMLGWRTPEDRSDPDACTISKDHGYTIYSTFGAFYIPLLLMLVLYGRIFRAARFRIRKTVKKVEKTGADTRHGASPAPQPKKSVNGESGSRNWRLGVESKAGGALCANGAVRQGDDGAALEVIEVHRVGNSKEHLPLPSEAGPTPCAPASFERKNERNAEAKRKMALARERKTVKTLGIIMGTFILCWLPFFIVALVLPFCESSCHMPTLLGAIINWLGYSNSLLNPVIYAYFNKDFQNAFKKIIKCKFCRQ
Description: Cells expressing the human 5-HT1A receptor were grown to mid-log phase in complete culture medium and then scraped from the culture vessels in ice-cold Ca^2+- and Mg^2+-free Phosphate-buffered saline. The cells were then centrifuged for 10 minutes at 5,000×g and 4° C. and the pellets resuspended in buffer A (15 mM Tris-HCl pH 7.5; 2 mM MgCl2; 0.3 mM EDTA; 1 mM EGTA) and homogenized in a glass-glass homogenizer. The crude membrane fraction was collected by two consecutive centrifugation steps at 35,000×g and 4° C. for 30 minutes separated by a wash step with buffer A. The final membrane pellet was suspended in buffer B (75 mM Tris-HCl pH 7.5; 12.5 mM MgCl2; 0.3 mM EDTA; 1 mM EGTA; 250 mM sucrose) and flash-frozen in liquid nitrogen. Protein content was determined by the BCA method (Interchim, UP40840A).
Radioligand competition binding was performed in duplicate in the wells of a 96 well plate (Master Block, Greiner, 786201) containing binding buffer (50 mM Tris, 5 mM CaCl2, 0.1% ascorbic acid, 10 μg/ml saponin, pH7.4), membrane extracts prepared from the 5-HT1A expressing CHO-K1 cell line (7 μg protein/well), reference tracer (0.9 nM [^3H]-8-OH-DPAT) and test compound in a final volume of 0.1 ml. Nonspecific binding was determined by co-incubation with 200-fold excess of reference competitor (5-HT). The samples were incubated for 1 hour at 25° C., and then filtered over GF/B Unifilter plates (Perkin Elmer 6005177) presoaked in 0.5% PEI, using a Filtermate Harvester (Perkin Elmer, C96162). Filters were washed six times with 0.5 ml ice-cold buffer (50 mM Tris pH 7.4) and 50 μl of Microscint 20 (Packard) were added to each well. The plates were incubated 15 minutes on an orbital shaker and then counted with a TopCount NXT (Packard, C384V01) for 1 minute/well.
Compounds were tested at 1 and 10 μM concentrations, in duplicate: […]

TAAR1 receptor = biological target: T2, TAAR1 receptor (UniProt Q96RJ0); assay: TAAR1 Agonist cAMP Assay; format: cell-based, human or mouse; conditions: CHO-K1 cells expressing TAAR1; cAMP HTRF; 30 minutes at room temperature
T2 sequence (Q96RJ0 1-339): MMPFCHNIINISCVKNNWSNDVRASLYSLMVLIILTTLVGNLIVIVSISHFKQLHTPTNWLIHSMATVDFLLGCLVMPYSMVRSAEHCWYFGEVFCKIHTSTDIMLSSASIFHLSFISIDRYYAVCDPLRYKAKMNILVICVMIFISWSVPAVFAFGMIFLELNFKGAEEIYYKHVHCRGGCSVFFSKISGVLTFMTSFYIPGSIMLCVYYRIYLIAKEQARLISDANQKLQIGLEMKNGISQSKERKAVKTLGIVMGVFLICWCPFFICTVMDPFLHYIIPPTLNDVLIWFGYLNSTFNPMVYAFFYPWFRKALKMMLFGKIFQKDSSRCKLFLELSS
Description: CHO-K1 cells expressing the human TAAR1 receptor (Accession number NP_612200.1) or mouse TAAR1 receptor (Accession number NP_444435.1) were grown in media (Advanced DMEM supplemented with 1% dialyzed fetal bovine serum) without antibiotics. The cells were detached by gentle flushing with phosphate buffered saline containing 5 mM EDTA, recovered by centrifugation and resuspended in assay buffer (Krebs-Ringers Henseleit buffer: 5 mM KCl, 1.25 mM MgSO4, 124 mM NaCl, 25 mM HEPES, 13.3 mM Glucose, 1.25 mM KH2PO4, 1.45 mM CaCl2, 0.5 g/L BSA, supplemented with 1 mM isobutylmethylxanthine). Testing was performed in 384-well plates. 5 μl of cells (3000 cells) were mixed with 5 μl of the test compound diluted in assay buffer and then incubated for 30 minutes at room temperature. cAMP levels were determined using the Cisbio cAMP Gs dynamic HTRF kit (Cisbio, Bedford, MA). The results of the testing are shown in Table 3, with EC50 ranges designated as follows: • A=0.1 μM to 1 μM • B=0.01 μM to <0.1 μM • C=0.001 μM to <0.01 μM • D=0.0001 μM to <0.001 μM

inhibition at 1 µM (human 5-HT1A receptor)	EC50 (TAAR1 receptor)	SMILES
> 50%		NC[C@@H]1CCOc2c(-c3ccncc3)cccc21 [Compound 1, (R)-(8-(pyridin-4-yl)chroman-4-yl)methanamine]
> 90%		NC[C@H]1CCOc2c(-c3ccncc3)cccc21 [Compound 2, (S)-(8-(pyridin-4-yl)chroman-4-yl)methanamine]
> 50%	10 to 100 nM	CNC[C@@H]1CCOc2c(-c3ccncc3)cccc21 [Compound 3, (R)—N-methyl-1-(8-(pyridin-4-yl)chroman-4-yl)methanamine]
> 90%	100 to 1000 nM	CNC[C@H]1CCOc2c(-c3ccncc3)cccc21 [Compound 4, (S)—N-methyl-1-(8-(pyridin-4-yl)chroman-4-yl)methanamine]
